Assay results reported in patent US20110212853A1, “NOVEL DIAGNOSTIC METHOD” (PROBIODRUG AG, priority 2010, published 2011).

Key:
RAW 264.7 cells [1] = assay: Western Blot of mMCP-1 N1pE and total mMCP-1 in RAW 264.7 cell culture supernatant; format: cell-based, mouse; settings: RAW 264.7 supernatants, different QCI
Description: Stimulation of RAW 264.7 and inhibitor application occurred according to Example 9. For Western Blot analysis, proteins of cell culture supernatants were separated by application to a SDS gel electrophoresis. Separated proteins were electrically transferred to nitrocellulose membranes. Membranes were blocked for one hour with TBST-M (=TBST+5% skimmed milk) at room temperature with gentle shaking. Antibody incubation occurred over night at 4° C. on a rocking platform with the detection antibody for total mMCP-1 (Rat anti mouse MCP-1, R&D Systems) diluted to 1 μg/ml in equal volumes of TBST-M or the detection antibody for mMCP-1 N1pE (clone 332-4B8), respectively. Secondary anti-mouse and anti-rat antibody conjugated with horseradish peroxidase were used for signal detection, following standard procedures.

recombinant human QC = recombinant human QC (Homo sapiens, UniProt Q16769); assay: Chemotactic potency of human MCP-1 in absence or presence of a QC-inhibitor (QC-mediated pGlu formation, then DP4 cleavage); format: biochemical; settings: 10 μM inhibitor, FIG. 12
Chain of recombinant human QC (Q16769 29-361): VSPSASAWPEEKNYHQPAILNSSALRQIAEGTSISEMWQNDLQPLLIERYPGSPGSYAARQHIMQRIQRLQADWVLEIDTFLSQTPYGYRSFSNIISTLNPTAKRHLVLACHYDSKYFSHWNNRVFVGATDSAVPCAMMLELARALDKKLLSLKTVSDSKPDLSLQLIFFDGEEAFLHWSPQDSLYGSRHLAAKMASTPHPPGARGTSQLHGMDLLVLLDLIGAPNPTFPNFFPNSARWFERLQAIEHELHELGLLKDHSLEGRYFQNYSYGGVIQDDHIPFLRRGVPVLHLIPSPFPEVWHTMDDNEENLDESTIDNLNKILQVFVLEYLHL
Description: Recombinant human MCP-1(1-76) (SEQ ID NO: 1) starting with an N-terminal glutamine (Peprotech) was dissolved in 25 mM Tris/HCl pH 7.6 in a concentration of 10 μg/ml. The MCP-1 solution was either pre-incubated with recombinant human QC (0.0006 mg/ml) for 3 h at 30° C. and subsequently incubated with recombinant human DP4 (0.0012 mg/ml) at 30° C. or incubated with DP4 without prior QC application. In addition, the incubation of Gln^1-MCP-1 with recombinant human QC was carried out in the presence of 10 μM of 1-(3-(1H-imidazol-1-yl)propyl)-3-(3,4-dimethoxyphenyl)thiourea hydrochloride. Resulting DP4 cleavage products were analyzed using Maldi-TOF mass spectrometry after 0 min, 15 min, 30 min, 1 h, 2 h and 4 h.
The chemotaxis assay was performed using 24 well TransWell plates with a pore size of 5 μm (Corning). THP-1 cells were suspended in RPMI1640 in a concentration of 1*10^6 cells/100 μl and applied in 100 μl aliquots to the upper chamber. Cells were allowed to migrate towards the chemoattractant for 2 h at 37° C. […] Afterwards, cells migrated to the lower chamber were counted using a cell counter system (Schärfe System). The chemotactic index was calculated by dividing cells migrated to the stimulus from cells migrated to the negative control. […]

[2] = test system: thioglycollate-induced peritonitis; assay: mMCP-1 N1pE/mMCP-1 ratio and monocyte infiltration in mice treated with thioglycollate and QCI; format: in vivo, mouse; settings: QCI intraperitoneal 30 minutes before thioglycollate
Description: To capture mouse MCP-1, commercially available polyclonal antiserum rabbit anti mJE (Peprotech, Hamburg, Germany) as capture antibody which specifically binds mouse MCP-1 was diluted in PBS to 500 ng/ml and immobilized in polystyrene 96-well microtitre plates over 4-7 nights at 4° C. Thereafter, blocking occurred for 2 hours at room temperature with ELISA Blocker (Thermo Fisher Scientific, Waltham, USA). For preparation of the standard curve recombinant mMCP-1 was incubated with mouse Glutaminyl Cyclase (QC) in order to obtain mMCP-1 N1pE. The recombinant mMCP-1 N1pE standard peptide was serially diluted with ELISA Blocker from 1950 pg/ml down to 19.5 pg/ml and added to the wells in duplicate. Two wells filled with ELISA Blocker represent the standard curve value 0 pg/ml. After an incubation period of 2 hours at room temperature, plates were washed at least three times with TBS-T. For detection of mMCP-1 N1pE, the MCP-1 N1pE antibody clone 348-2C9 together with HRP-conjugated anti mouse antibody were both diluted in ELISA Blocker to final concentrations of 500 ng/ml. […] Absorption at 450/540 nm was determined by a Tecan Sunrise plate reader. […]
Thioglycollate was injected intraperitoneal in mice. […] Infiltrated monocytes were counted by FACS analysis via double staining of 7/4 and Ly6G antigens.

RAW 264.7 cells [3] = assay: mMCP-1 N1pE/mMCP-1 ratio by ELISA in LPS stimulated RAW 264.7 treated with QCI; format: cell-based, mouse; settings: RAW 264.7, 10 ng/ml LPS, 24 h, different QCI concentrations
Description: To capture mouse MCP-1, commercially available polyclonal antiserum rabbit anti mJE (Peprotech, Hamburg, Germany) as capture antibody which specifically binds mouse MCP-1 was diluted in PBS to 500 ng/ml and immobilized in polystyrene 96-well microtitre plates over 4-7 nights at 4° C. Thereafter, blocking occurred for 2 hours at room temperature with ELISA Blocker (Thermo Fisher Scientific, Waltham, USA). For preparation of the standard curve recombinant mMCP-1 was incubated with mouse Glutaminyl Cyclase (QC) in order to obtain mMCP-1 N1pE. The recombinant mMCP-1 N1pE standard peptide was serially diluted with ELISA Blocker from 1950 pg/ml down to 19.5 pg/ml and added to the wells in duplicate. Two wells filled with ELISA Blocker represent the standard curve value 0 pg/ml. After an incubation period of 2 hours at room temperature, plates were washed at least three times with TBS-T. For detection of mMCP-1 N1pE, the MCP-1 N1pE antibody clone 348-2C9 together with HRP-conjugated anti mouse antibody were both diluted in ELISA Blocker to final concentrations of 500 ng/ml. […] Absorption at 450/540 nm was determined by a Tecan Sunrise plate reader.
In order to analyse the effect of QCI on the ratio of mouse MCP-1 N1pE/mouse MCP-1, the mouse macrophage cell line RAW 264.7 was stimulated with LPS in the absence or presence of increasing concentrations of the QC inhibitor QCI. […] After 24 h cell culture supernatants were analyzed according to the protocol in Example 9. […]

COc1ccc(NC(=S)NCCCn2ccnc2)cc1OC.Cl [QCI, 1-(3-(1H-imidazol-1-yl)propyl)-3-(3,4-dimethoxyphenyl)thiourea hydrochloride]
Western Blot signal of mMCP-1 N1pE (RAW 264.7 cells [1]; FIG. 22A): concentration dependent | Western Blot signal intensity of total mMCP-1 (RAW 264.7 cells [1]; FIG. 22B): no change | pGlu-formation of Gln^1-MCP-1 by QC (recombinant human QC): prevents pGlu-formation | number of infiltrating monocytes to the peritoneum ([2]; FACS, FIG. 23B): decreased number | mMCP-1 N1pE/mMCP-1 ratio in peritoneal lavage fluid ([2]; lavage after 4 h): dose dependent reduction | amount of mMCP-1 N1pE (RAW 264.7 cells [3]): reduced by QCI in a concentration dependent manner | amount of total mMCP-1 (RAW 264.7 cells [3]): remains unaffected | ratio of mMCP-1 N1pE/mMCP-1 (RAW 264.7 cells [3]): decreases with increasing inhibitor concentrations
